What was measured:
[1] = test system: male Albino Swiss mice; experiment: Hot plate test; assay type: in vivo, mouse
Experimental: The experiments were performed on male Albino Swiss mice (20–25 g), where 4 animals were kept in a cage, in an environmentally controlled room (ambient temperature 22 ± 1 °C; relative humidity 50–60%; 12 h light/dark cycle, lights on at 8:00). Standard laboratory food (LSM, Agropol-Motycz, Poland) and filtered water were available ad libitum. All the behavioral experiments were carried out in accordance with the European Community Council Directive for Care and Use of Laboratory Animals (2010/63/EU) (2016), and approved by the Local Ethics Committee for Animal Experimentation. The tested compounds were administered intraperitoneally (i.p.), dissolved in DMSO (its final concentration of 0.1%), suspended in 0.5% Tween-80 (1–2 drops) and then diluted using an aqueous solution of 0.5% methylcellulose (tylose). All the compounds were given in a manner generally accepted in experimental pharmacology, in a volume of 10 mL/kg body weight. The animals were weighed immediately before injection. Each group consisted of 8 members. The control animals received an equivalent volume of the solvent at the respective time before the tests. […] Between injections, the mice were provided with stable living conditions and unrestricted access to food and water. All the experiments were conducted in the light phase between 09.00 a.m. and 05.00 p.m. For the hot plate test, the mice were placed on a hot plate (Ugo Basile Srl, Gemonio, Italy) maintained at a constant temperature of 55 °C with a cutoff time of 20 s. The baseline latency response (in seconds), induced by the thermal stimulus, with the mouse lifting either of the hind paws or jumping with all four feet off the hot plate, before administration of a compound was measured first. The animals were then administered with compounds and the post-treatment latency responses were determined at 30 min time intervals up to 180 min after drug injection. The antinociceptive effects of the compounds were expressed as a percentage of maximum possible effect (%MPE), which was calculated according to the following equation: [(T1 – T0)/(20 – T0)] × 100, where T0 and T1 are the predrug and post-drug latencies for hot plate response, respectively.[37],[38] The results were calculated using the one-way analysis of variance (ANOVA) followed by Bonferroni’s post hoc test. The results are presented as the means ± standard errors of mean (S.E.M.). The level of p < 0.05 was considered statistically significant. All the figures were prepared using the GraphPad Prism ver. 5.00 for Windows (GraphPad Software, San Diego, CA, USA), www.graphpad.com.

[2] = test system: 5-HT1AR; design: method as in PMID 30043643; conditions: previous work, cited from earlier work; for potency pD2: agonist, GTPγS assay
[3] = test system: α1; design: method as in PMID 30043643; conditions: previous work; cited from earlier work
[4] = test system: superficial dorsal horn neurons (lamina I–II); experiment: Patch-clamp recording from spinal cord slices; assay type: cell-based, mouse; conditions: for neurons showing slow outward current: voltage clamp −60 mV
Experimental: The Italian Ministry of Health approved all the experiments that were conducted on postnatal CD1 mice (P18–P25) in accordance with the Guide for the Care and Use of Laboratory Animals and the EU and Italian regulations on animal welfare. The spinal cord slices were obtained following the procedure described previously.[69],[70] Briefly, the animals were anesthetized with isoflurane and decapitated, the spinal cord and vertebrae were rapidly removed and placed in ice-cold dissecting Krebs’ solution (composition in mM:125 NaCl, 2.5 KCl, 1.25 NaH2PO4, 26 NaHCO3, 25 glucose, 6 MgCl2, 1.5 CaCl2, and 1 kynurenic acid, pH 7.4, 320 mOsm), bubbled with 95% O2, 5% CO2. The lumbar spinal cord was isolated, embedded in an agarose block (low melting point agarose 3%, Thermo Fisher Scientific, Waltham, USA), and transverse slices (500 μm thick) were obtained using a vibrating microtome (WPI, Sarasota, USA). The slices were incubated in oxygenated incubation Krebs’ solution (the same as dissecting but without kynurenic acid) at 35 °C for 30 min and used for recording. The Patch-clamp recording in whole-cell configuration was performed on lamina I–II neurons at room temperature. The slices were perfused at 2 mL/min with recording Krebs’solution (in mM: 125 NaCl, 2.5 KCl, 1.25 NaH2PO4, 26 NaHCO3, 25 glucose, 1 MgCl2, and 2 CaCl2, pH 7.4, 320 mOsm). Recordings of post-synaptic currents (EPSCs) were performed in voltage clamp, by using an intracellular solution with the following composition (in mM): 120 potassium methanesulfonate, 10 NaCl, 10 EGTA, 1 CaCl2, 10 HEPES, 5 ATP-Mg, pH adjusted to 7.2 with KOH, osmolarity 300 mOsm. 8-OH-DPAT was obtained from Sigma-Aldrich (Saint Louis, USA). The data were recorded and acquired using a Multiclamp 700A amplifier and the pClamp 10 software (Molecular Devices, Sunnyvale, USA). The sampling rate was 10 kHz, and the data were filtered at 2 kHz. The data were analyzed off-line using pClamp10 software and Minianalysis (Synaptosoft, USA). The data are expressed as the mean ± SEM and differences were considered significant for p < 0.05. The statistical significance for the effect on EPSC frequency was determined using the Kolmogorov–Smirnov test on individual neurons.

[5] = test system: Hep-G2 cells; experiment: Hep-G2 cell viability (MTT assay); assay type: cell-based; conditions: 72 h; for hepatic cell viability vs untreated control cells: 50 μM; for hepatic cell viability (toxicity): concentrations ≤10 μM
Experimental: HEK293 cells with stable expression of human 5-HT1A, 5-HT6, and 5-HT7b (prepared with the use of Lipofectamine 2000) were grown in Dulbecco’s Modified Eagle Medium (DMEM) containing 10% dialyzed fetal bovine serum (FBS) and 500 μg/mL G418 sulfate. Liver hepatocellular carcinoma Hep-G2 cells were cultured in DMEM enriched by 10% FBS, 2 mM L-glutamine, 100 IU/mL penicillin, and 50 μg/mL streptomycin (all from Sigma-Aldrich Corporation, a division of Merck KGaA, Darmstadt, Germany). Cell lines were maintained at 37 °C in a humidified atmosphere with 5% CO2. For membrane preparation, the cells were subcultured in 150 cm^2 flasks, grown to 90% confluence, washed twice with prewarmed to 37 °C phosphate buffered saline (PBS), and pelleted by centrifugation (200g) in PBS containing 0.1 mM EDTA and 1 mM dithiothreitol. Prior to membrane preparation, pellets were stored at −80 °C.
Liver hepatocellular carcinoma Hep-G2 cells were seeded in 96-well plates (1 × 10^4 cells/well) and maintained under continuous stimulation with increasing concentrations (nM−μM range) of the tested compounds. 200 mM ethanol and 5% Triton X-100 (Sigma-Aldrich Corporation) served as controls. The viability of cells was assessed by MTT assay as previously described.[66],[67] The absorbance was detected by a Victor3 plate reader (PerkinElmer Inc., Waltham, MA, USA) and represented by box and whiskers plot, as a measure of cell viability. Differences between values from treated and untreated cells were evaluated by two-ANOVA followed by Dunnett’s multiple comparison test (p < 0.05).

Row | SMILES | potency pD2 [2] | selectivity 5-HT1A/α1 [3] | neurons showing slow outward current ([4]; bath application 10 μM) | hepatic cell viability vs untreated control cells [5] | hepatic cell viability (toxicity) [5] | other results
1 | c1ccc(C2(c3ccccc3)OCC(CNCCOc3ccccc3-c3ccncc3)O2)cc1 (racemic) [rac-1, N-[(2,2-diphenyl-1,3-dioxolan-4-yl)methyl]-2-[2-(pyridin-4-yl)phenoxy]ethan-1-ammonium hydrogenoxalate] | 8.83 | 135 | not effective | – | – | MPE values in the hot plate test ([1]; mice, 5, 10 and 20 mg/kg i.p., 30-180 min): did not reveal any significant change in the MPE values; neurons showing sEPSC frequency decrease ([4]; 50 μM): 7 out of 23; neurons showing slow outward current ([4]; 50 μM): 5 out of 23
2 | Cn1cncc1-c1ccccc1OCCNCC1COC(c2ccccc2)(c2ccccc2)O1 (racemic) [rac-2, N-((2,2-diphenyl-1,3-dioxolan-4-yl)methyl)-2-(2-(1-methyl-1H-imidazol-5-yl)phenoxy)ethan-1-ammonium hydrogenoxalate] | 5.46 | 132 | – | – | – | relative effectiveness (Emax) [2]: 240%
3 | c1ccc(C2(c3ccccc3)OC[C@@H](CNCCOc3ccccc3-c3ccncc3)O2)cc1 [(R)-1, N-[(2,2-Diphenyl-1,3-dioxolan-4-yl)methyl]-2-[2-(pyridin-4-yl)phenoxy]ethan-1-ammonium hydrogenoxalate] | – | – | – | negatively impacted cell viability | very low toxicity | –
4 | Cn1cncc1-c1ccccc1OCCNC[C@@H]1COC(c2ccccc2)(c2ccccc2)O1 [(R)-2, N-((2,2-Diphenyl-1,3-dioxolan-4-yl)methyl)-2-(2-(1-methyl-1H-imidazol-5-yl)phenoxy)ethan-1-ammonium hydrogenoxalate] | – | – | – | negatively impacted cell viability | very low toxicity | –
5 | c1ccc(C2(c3ccccc3)OC[C@H](CNCCOc3ccccc3-c3ccncc3)O2)cc1 [(S)-1, N-[(2,2-Diphenyl-1,3-dioxolan-4-yl)methyl]-2-[2-(pyridin-4-yl)phenoxy]ethan-1-ammonium hydrogenoxalate] | – | – | 5 out of 12 | no effect | very low toxicity | reaction time to the thermal stimulus (hot plate) ([1]; mice, 5 mg/kg i.p.): a significant effect was only noted at 120 and 180 min; reaction time to the thermal stimulus (hot plate) ([1]; mice, 10 mg/kg i.p., 30, 90, 120 and 180 min): significantly increased; reaction time to the thermal stimulus (hot plate) ([1]; mice, 20 mg/kg i.p., 30, 90, 120 and 180 min): significantly increased the reaction time; antinociceptive effect in hot plate with WAY-100635 ([1]; mice, (S)-1 10 mg/kg + WAY-100635 3 mg/kg, at 30 min): significantly reversed the antinociceptive effect; neurons showing sEPSC frequency decrease ([4]; 10 μM): 5 out of 12; neurons showing outward current in presence of naloxone ([4]; 10 μM (S)-1, naloxone present): 5 out of 12; neurons showing significant decrease in sEPSC frequency in presence of naloxone ([4]; 10 μM (S)-1, naloxone present): 6 out of 12; outward current in presence of WAY-100635 ([4]; (S)-1 with WAY-100635 10 μM, 7 neurons tested): failed to evoke the outward currents
6 | Cn1cncc1-c1ccccc1OCCNC[C@H]1COC(c2ccccc2)(c2ccccc2)O1 [(S)-2, N-((2,2-Diphenyl-1,3-dioxolan-4-yl)methyl)-2-(2-(1-methyl-1H-imidazol-5-yl)phenoxy)ethan-1-ammonium hydrogenoxalate] | – | – | – | negatively impacted cell viability | – | hepatic cell viability ([5]; 10 and 5 μM): decreased cell viability

From article PMC8016166, “Identification of a Potent and Selective 5-HT1A Receptor Agonist with In Vitro and In Vivo Antinociceptive Activity” (ACS Chemical Neuroscience, 2020)
